Reference: patent publication EP0469683A1, “Derivatives of 4-amino-1-methyltetralins, their preparation and their application in therapy” (LABORATOIRES LUCIEN, Société Anonyme :, priority 1990, dated 1992)
Marks after values point to notes of the source that are not given here.

Legend:
Type in all cases: in vivo
rat = test: Carrageenan-induced hind paw oedema (plethysmometer); details: 15 mg/kg, given 1 h before carrageenan; for % d'inhibitions de l'oedème/témoin à 3 h: 3 h after carrageenan; for % d'inhibitions de l'oedème/témoin à 4 h: 4 h after carrageenan; for % d'inhibitions de l'oedème/témoin à 5 h: 5 h after carrageenan
From the text: L'activité anti-inflammatoire de composés selon l'invention a été mise en évidence par l'étude de la réduction d'une réaction inflammatoire induite par injection de carragénine sous l'aponévrose plantaire de la patte postérieure du rat (carragénine Sigma type IV, solution de 1 % dans du soluté isotonique de NaCI).
Le test utilise un appareil de mesure de volume du type "pléthysmométre" constitué d'une structure en U remplie d'eau, une branche du U étant constituée d'un cylindre destiné à recevoir la patte de l'animal (la patte de l'animal est plongée jusqu'à coïncidence de l'articulation tibio-tarsienne avec un repère de base), l'autre branche étant constituée d'une pipette graduée permettant la mesure de volume en mode différentiel.
Selon le protocole expérimental, au temps "t0" on mesure le volume de la patte de l'animal puis on administre le produit de traitement à étudier (les animaux témoins recevant le véhicule d'administration dans les mêmes conditions). Au temps TO + 1 heure, on injecte sous l'aponévrose plantaire de chaque animal 0,05 ml de la solution de carragénine. Le volume de la patte de l'animal est mesuré 3, 4 et 5 heures après injection de la carragénine.
L'activité anti-inflammatoire est calculée en pourcentage de réduction de l'oedème chez les rats traités par rapport aux rats témoins.

souris [1] = test: Abdominal cramps test (writhing test), acetic acid i.p.; details: for résultats des tests complémentaires (crampes abdominales): other racemic diastereomer compared with the one shown in Tableau 4; for Degré de protection par rapport aux témoins: hydrochloride, 30 min before acetic acid; for Degré de protection par rapport aux témoins à 30´ / Degré de protection par rapport aux témoins à 1 h / Degré de protection par rapport aux témoins à 2 h / Degré de protection par rapport aux témoins à 4 h / Degré de protection par rapport aux témoins à 6 h: 4 mg/kg; for Degré de protection par rapport aux témoins à 30´: reading at 30 min; for Degré de protection par rapport aux témoins à 1 h: reading at 1 h; for Degré de protection par rapport aux témoins à 2 h: reading at 2 h; for Degré de protection par rapport aux témoins à 4 h: reading at 4 h; for Degré de protection par rapport aux témoins à 6 h: reading at 6 h
Protocol: Ce test, également connu sous le nom de WRITHING TEST, utilisé pour la sélection d'analgésiques/antalgiques à effet périphérique, consiste à rechercher une éventuelle protection vis-à-vis des crampes et/ou contorsions abdominales provoquées, chez la souris, par l'injection intrapéritonéale d'acide acétique.
Les composés ont été administrés sous forme de chlorhydrate par voie intrapéritonéale 30 minutes avant l'acide acétique.
Du point de vue cinétique de l'activité antalgique, des tests de crampes abdominales ont été poursuivis dans le temps avec des relevés à 30 minutes, 1 heure, 2 heures, 4 heures et 6 heures.

souris [2] = test: Behavioural despair test (forced swimming, immobility time); details: 25 mg/kg, given 30 min before 6 min exposure to water
From the text: L'activité antidépressive de composés selon l'invention a été mise en évidence par l'étude du comportement du désespoir chez la souris.
Selon le principe du test, un état dépressif est induit chez la souris en l'obligeant à nager dans un récipient cylindrique étroit d'où elle ne peut s'échapper. Après une période brève d'intense activité, la souris adopte une position immobile caractéristique, facilement identifiable. Les antidépresseurs réduisent ces moments d'immobilité.
Selon le protocole expérimental, les souris sont pré-exposées à l'eau à 25°C pendant 15 minutes, 24 heures avant le test. Pour le test on administre le composé à étudier 30 minutes avant une exposition à l'eau de 6 minutes. Le temps total d'immobilité de la 2e à la 6e minute est mesuré. Les animaux témoins reçoivent le véhicule d'administration du produit de traitement dans les mêmes conditions que les animaux traités.

souris [3] = test: Acute toxicity: mortality after single intraperitoneal administration of increasing doses; details: mouse
Protocol: La détermination de la mortalité chez la souris est observée à la suite de l'administration unique par voie intrapéritonéale de doses croissantes de composés à tester.
La dose limite DL100 pour les composés étudiés est supérieure ou égale à 100 mg/kg. Les doses DLO et DL100 des composés 27, 32 et 36 sont rassemblées dans le tableau 2: […]

souris [4] = test: Abdominal cramps test (writhing test), acetic acid i.p.; details: oral administration; for activité par voie orale: 16 mg/kg
souris [5] = test: Hot plate test (56 C), reaction time to thermal pain stimulus; details: hydrochloride, 1 h after administration
From the text: Cet essai consiste à mesurer le temps d'apparition d'une réaction au stimulus thermoalgique chez la souris.
L'animal est placé sur une plaque métallique portée à une température constante de 56 C. […] Après administration d'un analgésique, le délai d'apparition du réflexe s'allonge: on obtient une élévation de réaction du seuil.
Les composés ont été administrés par voie intrapéritonéale sous forme de chlorhydrate et testés sur les animaux 1 heure après leur administration. Les résultats sont donnés sur quelques exemples dans le tableau 3 suivant un pourcentage de variation du temps de réaction moyen après traitement par rapport à avant traitement.

[6] = DLO, single dose, intraperitoneal
[7] = DL100, single dose, intraperitoneal

## CC1(c2ccc(F)cc2)CCC(N2CCN(CCOC(=O)Nc3ccccc3)CC2)c2ccccc21 (stereo not drawn) [27.p (cis)]
rat
  % d'inhibitions de l'oedème/témoin à 3 h: 35* %
  % d'inhibitions de l'oedème/témoin à 4 h: 39** %
  % d'inhibitions de l'oedème/témoin à 5 h: 43** %
Souris [1]
  résultats des tests complémentaires (crampes abdominales): résultats comparables

## CC1(c2ccc(F)cc2)CCC(N2CCN(CCOC(=O)Nc3ccccc3)CC2)c2ccccc21 (stereo not drawn) [27.p (trans)]
Souris [2]
  activité antidépressive: activité antidépressive certaine
rat
  % d'inhibitions de l'oedème/témoin à 3 h: 40** %
  % d'inhibitions de l'oedème/témoin à 4 h: 40*** %
  % d'inhibitions de l'oedème/témoin à 5 h: 39** %
Souris [1]; 0,5 mg/kg intraperitoneal
  Degré de protection par rapport aux témoins: 58%
Souris [1]; 0,25 mg/kg intraperitoneal
  Degré de protection par rapport aux témoins: 47%
Souris [1]; 1 mg/kg intraperitoneal
  Degré de protection par rapport aux témoins: 70%
Souris [1]; 2 mg/kg intraperitoneal
  Degré de protection par rapport aux témoins: 68%
Souris [1]; 4 mg/kg intraperitoneal
  Degré de protection par rapport aux témoins: 75%
Souris [1]
  Degré de protection par rapport aux témoins à 30´: 84***
  Degré de protection par rapport aux témoins à 1 h: 68***
  Degré de protection par rapport aux témoins à 2 h: 53**
  Degré de protection par rapport aux témoins à 4 h: 56***
  Degré de protection par rapport aux témoins à 6 h: 21
Souris [1]; 8 mg/kg intraperitoneal
  Degré de protection par rapport aux témoins: 92%

## CC1(c2ccc(F)cc2)CCC(N2CCN(CCOC(=O)Nc3ccccc3)CC2)c2ccccc21 (stereo not shown) [27.p]
Souris [3]; [6]
  Dose limite 0 en: >200 mg/kg

## CC(=O)OCCN1CCN(C2CCC(C)(c3ccc(F)cc3)c3cc(C(C)(C)C)ccc32)CC1 (stereo not shown) [36.a]
Souris [4]
  activité par voie orale: actifs par voie orale
Souris [5]; 15mg/kg intraperitoneal
  Variation du temps de réaction moyen en %: 35%
Souris [1]; 2 mg/kg intraperitoneal
  Degré de protection par rapport aux témoins: 52%
Souris [1]; 4 mg/kg intraperitoneal
  Degré de protection par rapport aux témoins: 66%
Souris [1]
  Degré de protection par rapport aux témoins à 30´: 69***
  Degré de protection par rapport aux témoins à 1 h: 82***
  Degré de protection par rapport aux témoins à 2 h: 60**
  Degré de protection par rapport aux témoins à 4 h: 58***
  Degré de protection par rapport aux témoins à 6 h: 38**
Souris [1]; 8 mg/kg intraperitoneal
  Degré de protection par rapport aux témoins: 94%
Souris [1]; 15 mg/kg intraperitoneal
  Degré de protection par rapport aux témoins: 85%
Souris [3]; in vivo, ip
  Dose limite 0 en: 100 mg/kg
  Dose limite 100 en: >200 mg/kg

## CC(C)(C)c1ccc2c(c1)C(C)(c1ccc(F)cc1)CCC2N1CCN(CCOC(=O)Nc2cccc3ccccc23)CC1 (stereo not shown) [36.n]
Souris [3]; [6]
  Dose limite 0 en: >200 mg/kg

## CC(C)(C)c1ccc2c(c1)C(C)(c1ccc(F)cc1)CCC2N1CCN(CCOC(=O)Nc2ccccc2)CC1 (stereo not drawn) [36.p (cis)]
Souris [1]; 0,5 mg/kg intraperitoneal
  Degré de protection par rapport aux témoins: 61%
Souris [1]; 1 mg/kg intraperitoneal
  Degré de protection par rapport aux témoins: 44%
Souris [1]; 2 mg/kg intraperitoneal
  Degré de protection par rapport aux témoins: 61%
Souris [1]; 4 mg/kg intraperitoneal
  Degré de protection par rapport aux témoins: 90%
Souris [1]
  Degré de protection par rapport aux témoins à 30´: 89***
  Degré de protection par rapport aux témoins à 1 h: 69***
  Degré de protection par rapport aux témoins à 2 h: 68***
  Degré de protection par rapport aux témoins à 4 h: 46**
  Degré de protection par rapport aux témoins à 6 h: 24
Souris [1]; 8 mg/kg intraperitoneal
  Degré de protection par rapport aux témoins: 93%

## CC(C)(C)c1ccc2c(c1)C(C)(c1ccc(F)cc1)CCC2N1CCN(CCOC(=O)Nc2ccccc2)CC1 (stereo not drawn) [36.p (trans)]
Souris [5]; 25 mg/kg intraperitoneal
  Variation du temps de réaction moyen en %: 63* %
Souris [1]
  résultats des tests complémentaires (crampes abdominales): résultats comparables

## CC(C)(C)c1ccc2c(c1)C(C)(c1ccc(F)cc1)CCC2N1CCN(CCOC(=O)Nc2ccccc2)CC1 (stereo not shown) [36.p]
Souris [4]
  activité par voie orale: actifs par voie orale
Souris [3]; [7]
  Dose limite 100 en: >200 mg/kg
Souris [3]; [6]
  Dose limite 0 en: 100 mg/kg

## CC(C)(C)c1ccc2c(c1)C(C)(c1ccccc1)CCC2N1CCOCC1 (stereo not drawn) [39 (cis)]
Souris [1]; 0,5 mg/kg intraperitoneal
  Degré de protection par rapport aux témoins: 53%
Souris [1]; 1 mg/kg intraperitoneal
  Degré de protection par rapport aux témoins: 58%
Souris [1]; 2 mg/kg intraperitoneal
  Degré de protection par rapport aux témoins: 54%
Souris [1]; 4 mg/kg intraperitoneal
  Degré de protection par rapport aux témoins: 63%
Souris [1]; 8 mg/kg intraperitoneal
  Degré de protection par rapport aux témoins: 89%

## CC(C)(C)c1ccc2c(c1)C(C)(c1ccccc1)CCC2N1CCOCC1 (stereo not drawn) [39 (trans)]
Souris [5]; 25 mg/kg intraperitoneal
  Variation du temps de réaction moyen en %: 58%
Souris [1]
  résultats des tests complémentaires (crampes abdominales): résultats comparables

## CC1(c2ccc(F)cc2)CCC(N2CCN(CCO)CC2)c2ccccc21 (stereo not shown) [compound 27]
Souris [4]; 60 mg/kg
  pourcentages de protection: 86%
Souris [5]; 15mg/kg intraperitoneal
  Variation du temps de réaction moyen en %: 29%
Souris [1]; 4 mg/kg intraperitoneal
  Degré de protection par rapport aux témoins: 49%
Souris [1]; 8 mg/kg intraperitoneal
  Degré de protection par rapport aux témoins: 66%
Souris [1]; 15 mg/kg intraperitoneal
  Degré de protection par rapport aux témoins: 92%
Souris [1]; oral administration, 32 mg/kg
  pourcentages de protection: 37%
Souris [1]; writhing test, intraperitoneal
  activité par rapport à l'amino-4-trifluoro-méthyl-1 tétraline correspondante: activité nettement améliorée
Souris [3]; [7]
  Dose limite 100 en: 200 mg/kg
Souris [3]; [6]
  Dose limite 0 en: 100 mg/kg
Souris [3]; intraperitoneal, compared with the corresponding 4-amino-1-trifluoromethyl tetralin
  doses limites DLO et DL100 par rapport à l'amino-4-trifluorométhyl-1 tétraline correspondante: deux fois

## CC(C)(C)c1ccc2c(c1)C(C)(c1ccccc1)CCC2N1CCN(CCO)CC1 (stereo not shown) [compound 32]
Souris [5]; 8mg/kg intraperitoneal
  Variation du temps de réaction moyen en %: 16%
Souris [1]; 8 mg/kg intraperitoneal
  Degré de protection par rapport aux témoins: 41%
Souris [3]; in vivo, ip
  Dose limite 0 en: 25 mg/kg
  Dose limite 100 en: 100 mg/kg
